Experimental data taken from US11926642B2, “Compounds and methods for the treatment of COVID-19” (priority 2020, dated 2024).
Several values for one entry are separate records, joined by “and”; a condition that tells them apart may be missing. Identical values can stand only once. Like-named read-outs stand apart in the source and are kept apart here.

System: MA15-CoV
Set-up: species or system mice
Conditions: mouse, in vivo; for decline in day 4 lung viral titers: sc

COc1cccc2[nH]c(C(=O)N[C@@H](CC(C)C)C(=O)N[C@@H](C[C@@H]3CCNC3=O)C(=O)CO)cc12 [parent compound, N-((1S)-1-{[((1S)-3-hydroxy-2-oxo-1-{[(3S)-2-oxopyrrolidin-3-yl]methyl}propyl)amino]carbonyl}-3-methylbutyl)-4-methoxy-1H-indole-2-carboxamide]
reduction of lung viral titers on day 4 post-infection: ≈ 2.0 log 10 and ≈ 1.5 log 10 and ~1.0 log 10
weight loss and histopathologic signs of disease: decreased
weight loss caused by the virus: reduced
decline in day 4 lung viral titers (30 mg/kg): ≈ 1.5 log 10
decline in day 4 lung viral titers (100 mg/kg): ≈ 3 log 10
decline in day 4 lung viral titers (300 mg/kg): ≥ 3.5 log 10
